In PubChem BioAssay AID1918944 (Molecular Pharmacology Branch, DTP, NCI, 2023):
Values joined by “and” are separate entries in the source; they are usually repeats but may differ in a detail not shown here. Equal values may be shown once. Active and inactive are the calls of the source. The calls were made as follows: active = viability on the fitted dose curve at most 10% of control; inactive = the rest.

Test system: 786-0 complex spheroid viability
Test: Anticancer human tumor 786-0 cell line growth inhibition;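 also: spheroids exposed to agents for seven days before readout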
Settings: for viability, T/C: stronger effect = lower value
Method in brief: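 Drug combinations with the LSD1 inhibitor iadademstat tested on tumor cells co-cultured as spheroids with endothelial cells and mesenchymal stem cells. Concentrations descended in half-log increments from clinical Cmax or 10 microM.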

[1] = curve of first compound, second compound 0.1 µM
[2] = curve of first compound, second compound 0.316 µM
[3] = curve of first compound, second compound 1 µM
[4] = curve of first compound, second compound 3.16 µM
[5] = curve of first compound, second compound 10 µM
[6] = second compound 0.1 µM, first compound 0.00949 µM
[7] = second compound 0.1 µM, first compound 0.03 µM
[8] = second compound 0.1 µM, first compound 0.0949 µM
[9] = second compound 0.1 µM, first compound 0.3 µM
[10] = second compound 0.316 µM, first compound 0.00949 µM
[11] = second compound 0.316 µM, first compound 0.03 µM
[12] = second compound 0.316 µM, first compound 0.0949 µM
[13] = second compound 0.316 µM, first compound 0.3 µM
[14] = second compound 1 µM, first compound 0.00949 µM
[15] = second compound 1 µM, first compound 0.03 µM
[16] = second compound 1 µM, first compound 0.0949 µM
[17] = second compound 1 µM, first compound 0.3 µM
[18] = second compound 3.16 µM, first compound 0.00949 µM
[19] = second compound 3.16 µM, first compound 0.03 µM
[20] = second compound 3.16 µM, first compound 0.0949 µM
[21] = second compound 3.16 µM, first compound 0.3 µM
[22] = second compound 10 µM, first compound 0.00949 µM
[23] = second compound 10 µM, first compound 0.03 µM
[24] = second compound 10 µM, first compound 0.0949 µM
[25] = second compound 10 µM, first compound 0.3 µM

`Nc1ccn(C2OC(CO)C(O)C2(F)F)c(=O)n1` (stereo not drawn) + NC1CC1c1ccc(-c2cccc(O)c2)cc1 gave an IC50 [1] of less than 0.949 nM, an IC50 [2] of less than 0.949 nM and an IC50 [3] of less than 0.949 nM. The IC50 [4] was less than 0.949 nM, the IC50 [5] was less than 0.949 nM and the viability, T/C (second compound 0.1 µM, first compound 0.000949 µM) was 10.3%. The viability, T/C (second compound 0.1 µM, first compound 0.003 µM) was 2.49%, the outcome [6] was “active” and the viability, T/C [7] was 2.95%. It also gave a viability, T/C [8] of 3.87%, a viability, T/C [9] of 4.12% and a viability, T/C (second compound 0.316 µM, first compound 0.000949 µM) of 9.54%. For the same compound, the viability, T/C (second compound 0.316 µM, first compound 0.003 µM) was 2.66%, the outcome [10] was “active” and the viability, T/C [11] was 2.74%. For the same compound, the viability, T/C [12] was 4.19%, the viability, T/C [13] was 3.51% and the viability, T/C (second compound 1 µM, first compound 0.000949 µM) was 7.42%. The viability, T/C (second compound 1 µM, first compound 0.003 µM) was 2.53%, the outcome [14] was “active” and the viability, T/C [15] was 2.64%. It also gave a viability, T/C [16] of 3.23%, a viability, T/C [17] of 4% and a viability, T/C (second compound 3.16 µM, first compound 0.000949 µM) of 9.36%. The viability, T/C (second compound 3.16 µM, first compound 0.003 µM) was 2.32%, the outcome [18] was “active” and the viability, T/C [19] was 2.75%. The viability, T/C [20] was 3.87%, the viability, T/C [21] was 6.57% and the viability, T/C (second compound 10 µM, first compound 0.000949 µM) was 7.48%. For the same compound, the viability, T/C (second compound 10 µM, first compound 0.003 µM) was 3.61%, the outcome [22] was “active” and the viability, T/C [23] was 2.69%. It also gave a viability, T/C [24] of 3.6% and a viability, T/C [25] of 4.45%.

For `Nc1ncn(C2CC(O)C(CO)O2)c(=O)n1` (stereo not drawn), the viability, T/C (compound 0.00316 µM) was 101% and 107%, the viability, T/C (compound 0.01 µM) was 92.9% and 108% and the viability, T/C (compound 0.0316 µM) was 87.4% and 97.4%. The viability, T/C (compound 0.1 µM) was 77.8% and 93.8%, the viability, T/C (compound 0.316 µM) was 68.4% and 82.3% and the viability, T/C (compound 1 µM) was 53.7% and 76.3%. The IC50 (curve of compound) was greater than 1000 nM.

`CC(C)CC(NC(=O)C(Cc1ccccc1)NC(=O)c1cnccn1)B(O)O` (stereo not drawn) was tested, and the viability, T/C (compound 0.000316 µM) was 100% and 106%, the viability, T/C (compound 0.001 µM) was 107% and 108% and the viability, T/C (compound 0.00316 µM) was 32.1% and 53.2%. For the same compound, the viability, T/C (compound 0.01 µM) was 2.29% and 6.77%, the viability, T/C (compound 0.0316 µM) was 0.17% and 1.21% and the viability, T/C (compound 0.1 µM) was 0.2% and 0.37%. The IC50 (curve of compound) was 2.38 nM and 3.45 nM.

In the case of `CC(C)c1c(-c2ccccc2)nc2c(C#N)c[nH]n2c1=O`, the viability, T/C (compound 0.0316 µM) is reported as 105% and 103%, the viability, T/C (compound 0.1 µM) is reported as 108% and 101% and the viability, T/C (compound 0.316 µM) is reported as 99% and 105%. The viability, T/C (compound 1 µM) was 102% and 105%, the viability, T/C (compound 3.16 µM) was 104% and 110% and the viability, T/C (compound 10 µM) was 102% and 103%. The IC50 (curve of compound) was greater than 10000 nM.

`NS(=O)(=O)OCC1CC(n2ccc3c(NC4CCc5ccccc54)ncnc32)CC1O` (stereo not drawn) + NC1CCC(NC2CC2c2ccccc2)CC1 showed an IC50 [1] of 125 nM, an IC50 [2] of 139 nM and an IC50 [3] of 153 nM. For the same compound, the IC50 [4] was 133 nM, the IC50 [5] was 104 nM and the viability, T/C [6] was 111%. It also gave a viability, T/C [7] of 86.7%, a viability, T/C [8] of 65.6% and a viability, T/C [9] of 13.4%. The viability, T/C (second compound 0.1 µM, first compound 0.949 µM) was 3.43%, the viability, T/C (second compound 0.1 µM, first compound 3 µM) was 5.07% and the viability, T/C [10] was 115%. It also gave a viability, T/C [11] of 87.3%, a viability, T/C [12] of 71.4% and a viability, T/C [13] of 15.2%. It also gave a viability, T/C (second compound 0.316 µM, first compound 0.949 µM) of 3.67%, a viability, T/C (second compound 0.316 µM, first compound 3 µM) of 5.22% and a viability, T/C [14] of 113%. For the same compound, the viability, T/C [15] was 94.6%, the viability, T/C [16] was 74.2% and the viability, T/C [17] was 17.9%. It also gave a viability, T/C (second compound 1 µM, first compound 0.949 µM) of 3.16%, a viability, T/C (second compound 1 µM, first compound 3 µM) of 4.86% and a viability, T/C [18] of 101%. For the same compound, the viability, T/C [19] was 78.9%, the viability, T/C [20] was 67.3% and the viability, T/C [21] was 15.5%. The viability, T/C (second compound 3.16 µM, first compound 0.949 µM) was 3.16%, the viability, T/C (second compound 3.16 µM, first compound 3 µM) was 3.27% and the viability, T/C [22] was 73.6%. The viability, T/C [23] was 58.5%, the viability, T/C [24] was 54.6% and the viability, T/C [25] was 15.5%. The viability, T/C (second compound 10 µM, first compound 0.949 µM) was 1.53% and the viability, T/C (second compound 10 µM, first compound 3 µM) was 1.72%.

With `CCc1c2c(nc3ccc(O)cc13)-c1cc3c(c(=O)n1C2)COC(=O)[C@]3(O)CC` the viability, T/C (compound 0.000949 µM) was 6% and 6.39%, the viability, T/C (compound 0.003 µM) was 4.1% and 4.99% and the viability, T/C (compound 0.00949 µM) was 3.66% and 5.52%. The viability, T/C (compound 0.03 µM) was 3.36% and 6.78%, the viability, T/C (compound 0.0949 µM) was 4.94% and 9.67% and the viability, T/C (compound 0.3 µM) was 3.44% and 9.65%. The IC50 (curve of compound) was less than 0.949 nM.

With `NS(=O)(=O)OCC1CC(n2ccc3c(NC4CCc5ccccc54)ncnc32)CC1O` (stereo not drawn) the viability, T/C (compound 0.00949 µM) was 99.2% and 89.2%, the viability, T/C (compound 0.03 µM) was 84.4% and 87.8% and the viability, T/C (compound 0.0949 µM) was 66.8% and 85.6%. The viability, T/C (compound 0.3 µM) was 23.5% and 34.7%, the viability, T/C (compound 0.949 µM) was 6.87% and 15.1% and the viability, T/C (compound 3 µM) was 6.08% and 15.5%. The IC50 (curve of compound) was 144 nM and 212 nM.

With `CC1COCCN1c1cc(C2(S(C)(=N)=O)CC2)nc(-c2ccnc3[nH]ccc23)n1` (stereo not drawn) + NC1CCC(NC2CC2c2ccccc2)CC1 the IC50 [1] was 886 nM, the IC50 [2] was 792 nM and the IC50 [3] was 795 nM. The IC50 [4] was 604 nM, the IC50 [5] was 294 nM and the viability, T/C (second compound 0.1 µM, first compound 0.0316 µM) was 118%. It also gave a viability, T/C (second compound 0.1 µM, first compound 0.1 µM) of 114%, a viability, T/C (second compound 0.1 µM, first compound 0.316 µM) of 104% and a viability, T/C (second compound 0.1 µM, first compound 1 µM) of 43%. For the same compound, the viability, T/C (second compound 0.1 µM, first compound 3.16 µM) was 15.3%, the viability, T/C (second compound 0.1 µM, first compound 10 µM) was 6.76% and the viability, T/C (second compound 0.316 µM, first compound 0.0316 µM) was 125%. For the same compound, the viability, T/C (second compound 0.316 µM, first compound 0.1 µM) was 116%, the viability, T/C (second compound 0.316 µM, first compound 0.316 µM) was 93.4% and the viability, T/C (second compound 0.316 µM, first compound 1 µM) was 38.1%. The viability, T/C (second compound 0.316 µM, first compound 3.16 µM) was 14.7%, the viability, T/C (second compound 0.316 µM, first compound 10 µM) was 6.62% and the viability, T/C (second compound 1 µM, first compound 0.0316 µM) was 112%. For the same compound, the viability, T/C (second compound 1 µM, first compound 0.1 µM) was 116%, the viability, T/C (second compound 1 µM, first compound 0.316 µM) was 89.2% and the viability, T/C (second compound 1 µM, first compound 1 µM) was 40%. It also gave a viability, T/C (second compound 1 µM, first compound 3.16 µM) of 13%, a viability, T/C (second compound 1 µM, first compound 10 µM) of 4.93% and a viability, T/C (second compound 3.16 µM, first compound 0.0316 µM) of 109%. The viability, T/C (second compound 3.16 µM, first compound 0.1 µM) was 103%, the viability, T/C (second compound 3.16 µM, first compound 0.316 µM) was 72.8% and the viability, T/C (second compound 3.16 µM, first compound 1 µM) was 32.3%. For the same compound, the viability, T/C (second compound 3.16 µM, first compound 3.16 µM) was 9.43%, the viability, T/C (second compound 3.16 µM, first compound 10 µM) was 5.16% and the viability, T/C (second compound 10 µM, first compound 0.0316 µM) was 94.1%. For the same compound, the viability, T/C (second compound 10 µM, first compound 0.1 µM) was 77.5%, the viability, T/C (second compound 10 µM, first compound 0.316 µM) was 48.3% and the viability, T/C (second compound 10 µM, first compound 1 µM) was 20.8%. The viability, T/C (second compound 10 µM, first compound 3.16 µM) was 5.55% and the viability, T/C (second compound 10 µM, first compound 10 µM) was 2.91%.

`CC[C@@]1(O)C(=O)OCc2c1cc1n(c2=O)Cc2cc3c(CN(C)C)c(O)ccc3nc2-1` was tested, and the viability, T/C (compound 0.000316 µM) was 103% and 99.7%, the viability, T/C (compound 0.001 µM) was 96.7% and 96.5% and the viability, T/C (compound 0.00316 µM) was 65.8% and 70.9%. The viability, T/C (compound 0.01 µM) was 15.6% and 24.7%, the viability, T/C (compound 0.0316 µM) was 9.17% and 10.9% and the viability, T/C (compound 0.1 µM) was 4.15% and 4.08%. The IC50 (curve of compound) was 4.54 nM and 5.35 nM.

With `NC1CC1c1ccc(-c2cccc(O)c2)cc1` (stereo not drawn) the viability, T/C (compound 0.316 µM) was 110% [middle of 25 runs], the viability, T/C (compound 10 µM) was 89.2% [middle of 25 runs] and the IC50 (compound alone, run of 12/07/2021) was greater than 10000 nM.

With `Nc1ccn(C2OC(CO)C(O)C2(F)F)c(=O)n1` (stereo not drawn) the viability, T/C (compound 0.000949 µM) was 10.4% and 19.8%, the viability, T/C (compound 0.003 µM) was 4.3% and 7% and the outcome (compound 0.00949 µM) was “active”. For the same compound, the viability, T/C (compound 0.00949 µM) was 4.25%, the viability, T/C (compound 0.03 µM) was 4.55% and 6.65% and the viability, T/C (compound 0.0949 µM) was 4.92% and 6.2%. The viability, T/C (compound 0.3 µM) was 6.14% and 6.43% and the IC50 (curve of compound) was less than 0.949 nM.
